Results taken from ChEMBL document CHEMBL4190235, “Polysubstituted 2-aminoimidazoles as anti-biofilm and antiproliferative agents: Discovery of potent lead” (Eur J Med Chem, 2017).
The source made the active and inactive calls. No cut-off for these calls is given here.

Tests used:
[1] = test system: Pseudomonas aeruginosa; assay: Antibiofilm activity against Pseudomonas aeruginosa PA14 after 24 hrs by crystal violet staining based method; type: functional
[2] = test system: Pseudomonas aeruginosa; assay: Inhibition of planktonic growth of Pseudomonas aeruginosa PA14 cells; type: organism-based
[3] = test system: Salmonella typhimurium; assay: Antibiofilm activity against Salmonella typhimurium ATCC 14028 after 24 hrs by crystal violet staining based method; type: functional, Salmonella enterica subsp. enterica serovar Typhimurium
[4] = test system: Salmonella typhimurium; assay: Inhibition of planktonic growth of Salmonella typhimurium ATCC 14028; type: organism-based, Salmonella enterica subsp. enterica serovar Typhimurium; details: Salmonella enterica
[5] = test system: Staphylococcus aureus; assay: Antibiofilm activity against Staphylococcus aureus SH1000 after 48 hrs by crystal violet staining based method; type: functional
[6] = test system: Staphylococcus aureus; assay: Inhibition of planktonic growth of Staphylococcus aureus SH1000; type: organism-based
[7] = test system: A-375; assay: Antiproliferative activity against human A375 cells after 48 hrs by MTT assay; type: functional, cell-based; details: A-375, 48 h
[8] = test system: MIA PaCa-2; assay: Antiproliferative activity against human MIAPaCa2 cells after 48 hrs by MTT assay; type: functional, cell-based; details: MIA PaCa-2, 48 h
[9] = test system: A-375; assay: Cytotoxicity against human A375 cells assessed as reduction in cell viability at IC50 concentration after 24 hrs by calcein AM-dye based assay; type: functional
[10] = test system: MIA PaCa-2; assay: Cytotoxicity against human MIAPaCa2 cells assessed as reduction in cell viability at IC50 concentration after 24 hrs by calcein AM-dye based assay; type: functional
[11] = test system: A-375; assay: Antiproliferative activity against human A375 cells assessed as reduction in colony forming ability at IC50 concentration after 10 to 14 days by crystal violet-staining based assay; type: functional, cell-based
[12] = test system: MIA PaCa-2; assay: Antiproliferative activity against human MIAPaCa2 cells assessed as reduction in colony forming ability at IC50 concentration after 10 to 14 days by crystal violet-staining based assay; type: functional, cell-based
[13] = test system: A-375; assay: Cell cycle arrest in human A375 cells assessed as accumulation at subG1 phase at IC50 concentration after 48 hrs by propidium iodide staining based flow cytometry (reference value: 1.1 +/- 0.4%); type: functional
[14] = test system: A-375; assay: Cell cycle arrest in human A375 cells assessed as accumulation at G0/G1 phase at IC50 concentration after 48 hrs by propidium iodide staining based flow cytometry (reference value: 64.18 +/- 2.6%); type: functional
[15] = test system: A-375; assay: Cell cycle arrest in human A375 cells assessed as accumulation at S phase at IC50 concentration after 48 hrs by propidium iodide staining based flow cytometry (reference value: 30.48 +/- 1.4%); type: functional
[16] = test system: A-375; assay: Cell cycle arrest in human A375 cells assessed as accumulation at G2/M phase at IC50 concentration after 48 hrs by propidium iodide staining based flow cytometry (reference value: 8.18 +/- 2.2%); type: functional
[17] = test system: MIA PaCa-2; assay: Cell cycle arrest in human MIAPaCa2 cells assessed as accumulation at subG1 phase at IC50 concentration after 48 hrs by propidium iodide staining based flow cytometry (reference value: 1.53 +/- 0.4%); type: functional
[18] = test system: MIA PaCa-2; assay: Cell cycle arrest in human MIAPaCa2 cells assessed as accumulation at G0/G1 phase at IC50 concentration after 48 hrs by propidium iodide staining based flow cytometry (reference value: 66.05 +/- 2.2%); type: functional
[19] = test system: MIA PaCa-2; assay: Cell cycle arrest in human MIAPaCa2 cells assessed as accumulation at S phase at IC50 concentration after 48 hrs by propidium iodide staining based flow cytometry (reference value: 17.29 +/- 1.8%); type: functional
[20] = test system: MIA PaCa-2; assay: Cell cycle arrest in human MIAPaCa2 cells assessed as accumulation at G2/M phase at IC50 concentration after 48 hrs by propidium iodide staining based flow cytometry (reference value: 16.66 +/- 0.8%); type: functional

COc1ccc(Cc2nc(N)n(CC(=O)Nc3ccccc3)c2-c2ccccc2Br)cc1
MBIC50 [1]: 12.6 µM
IC50 [2]: 13.1 µM
MBIC50 [3]: 17 µM
IC50 [4]: 46.4 µM
MBIC50 [5]: 4.3 µM
IC50 [6]: 23.3 µM
IC50 [7]: 1.4 µM
IC50 [8]: 3.2 µM
Activity [9]: Active
Activity [10]: Active
Activity [11]: Active
Activity [12]: Active
Activity [13]: 19.88%
Activity [14]: 43.56%
Activity [15]: 32.1%
Activity [16]: 55.33%
Activity [17]: 11.21%
Activity [18]: 50.41%
Activity [19]: 24.5%
Activity [20]: 40.45%
